Results published in patent US20110160206A1, “TRI-SUBSTITUTED PYRIMIDINE COMPOUNDS AND THEIR USE AS PDE10 INHIBITORS” (priority 2009, published 2011).
Counter-ions that a name gives are not always drawn.

Molecular target: T1, PDE10 (PDE10A) (Bos taurus, UniProt A0A3Q1MHJ4)
T1 construct: isolated and prepared from bovine corpus striatum; from tissue; host or cells: bovine corpus striatum
T1 sequence (A0A3Q1MHJ4 1-1068): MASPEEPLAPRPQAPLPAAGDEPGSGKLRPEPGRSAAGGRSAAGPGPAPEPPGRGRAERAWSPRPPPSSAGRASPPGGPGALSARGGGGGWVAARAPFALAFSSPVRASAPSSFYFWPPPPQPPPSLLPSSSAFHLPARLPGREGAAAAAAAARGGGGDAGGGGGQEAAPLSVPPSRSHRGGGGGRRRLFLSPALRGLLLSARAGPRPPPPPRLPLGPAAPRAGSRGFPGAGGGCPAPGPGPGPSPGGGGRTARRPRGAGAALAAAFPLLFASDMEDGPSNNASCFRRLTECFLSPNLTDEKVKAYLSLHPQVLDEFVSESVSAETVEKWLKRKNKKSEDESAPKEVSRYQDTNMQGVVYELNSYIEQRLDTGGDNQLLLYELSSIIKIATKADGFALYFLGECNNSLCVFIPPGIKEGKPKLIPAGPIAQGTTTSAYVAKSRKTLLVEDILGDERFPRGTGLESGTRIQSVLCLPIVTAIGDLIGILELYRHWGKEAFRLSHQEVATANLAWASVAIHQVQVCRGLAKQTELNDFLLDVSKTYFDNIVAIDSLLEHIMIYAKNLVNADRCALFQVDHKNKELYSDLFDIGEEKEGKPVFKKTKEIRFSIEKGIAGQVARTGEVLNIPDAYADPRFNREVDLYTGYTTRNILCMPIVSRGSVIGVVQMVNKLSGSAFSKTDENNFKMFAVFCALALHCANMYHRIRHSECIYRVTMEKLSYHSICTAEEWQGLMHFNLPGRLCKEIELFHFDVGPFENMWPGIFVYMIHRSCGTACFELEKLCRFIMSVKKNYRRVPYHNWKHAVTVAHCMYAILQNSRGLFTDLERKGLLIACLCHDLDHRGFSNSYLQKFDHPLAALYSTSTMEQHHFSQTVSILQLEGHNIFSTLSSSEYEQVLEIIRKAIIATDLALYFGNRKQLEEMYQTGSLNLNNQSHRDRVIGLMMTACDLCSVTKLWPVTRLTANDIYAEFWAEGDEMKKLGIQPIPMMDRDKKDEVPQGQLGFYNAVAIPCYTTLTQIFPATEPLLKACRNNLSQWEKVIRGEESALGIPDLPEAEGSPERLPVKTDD
Experiment: Measurement of PDE10 inhibitory activity (radiolabeled nucleotide PDE assay)
Type: biochemical
Settings: PDE10A from bovine corpus striatum; [3H]cAMP 7 nM final; room temperature 90 min
Method: (1) The enzyme PDE10 (PDE10A) was isolated and prepared from bovine corpus striatum, according to the methods described in references Fujishige et al., Eur. J. Biochem., vol. […] The enzyme solution obtained was used for a PDE assay.
Specifically, the measurements of the inhibitory activities were carried out in the following method.
(Method) The test compounds were dissolved in dimethyl sulfoxide (DMSO). […] The final concentration of cAMP in the reaction mixtures was 7 nM. The reaction mixtures were incubated at room temperature for 90 min under dark conditions. After incubation, the reaction was stopped by adding 100 μL of methanol and resultant solutions were applied to filter plate containing Dowex (1×8 200-400) and centrifuged. 50 μL of the eluate together with wash eluate with additional 100 μL methanol was collected in another plate and the radioactivity was measured with 250 μL of scintillant.
(2) The compounds in the Examples below were tested for PDE inhibition using the Method described above.

Row | SMILES | IC50 [nM]
1 | CN(C)c1nc2ccccc2nc1/C=C/c1nc(NC2CCOCC2)cc(N2CCCC2)n1 [Example 1.001, N,N-dimethyl-3-{(E)-2-[4-pyrrolidin-1-yl-6-(tetrahydro-2H-pyran-4-ylamino)pyrimidin-2-yl]vinyl}quinoxalin-2-amine dihydrochloride] | 0.1
2 | COCCNc1cc(N2CCCC2)nc(/C=C/c2nc3ccccc3nc2N(C)C)n1 [Example 1.003, 3-((E)-2-{4-[(2-methoxyethyl)amino]-6-pyrrolidin-1-ylpyrimidin-2-yl}vinyl)-N,N-dimethylquinoxalin-2-amine] | 0.6
3 | CN(C)c1nc2ccccc2nc1/C=C/c1nc(N[C@@H]2CCS(=O)(=O)C2)cc(N2CCCC2)n1 [Example 1.007, 3-[(E)-2-(4-{[(3R)-1,1-dioxidotetrahydro-3-thienyl]amino}-6-pyrrolidin-1-ylpyrimidin-2-yl)vinyl]-N,N-dimethylquinoxalin-2-amine] | 0.09
4 | CN(c1nc2ccccc2nc1/C=C/c1nc(NC2CCOCC2)cc(N2CCCC2)n1)C1CC1 [Example 1.010, N-cyclopropyl-N-methyl-3-{(E)-2-[4-pyrrolidin-1-yl-6-(tetrahydro-2H-pyran-4-ylamino)pyrimidin-2-yl]vinyl}quinoxalin-2-amine] | 0.48
5 | Cc1nc2ccccc2nc1/C=C/c1nc(N[C@H]2CC[C@](C)(O)CC2)cc(N2CCCC2)n1 [Example 1.020, trans-1-methyl-4-({2-[(E)-2-(3-methylquinoxalin-2-yl)vinyl]-6-pyrrolidin-1-ylpyrimidin-4-yl}amino)cyclohexanol] | 0.073
6 | Cc1nc2ccccc2nc1/C=C/c1nc(N[C@H]2CC[C@H](CO)CC2)cc(N2CCCC2)n1 [Example 1.024, [trans-4-({2-[(E)-2-(3-methylquinoxalin-2-yl)vinyl]-6-pyrrolidin-1-ylpyrimidin-4-yl}amino)cyclohexyl]methanol] | 0.039
7 | Cc1cc2nc(C)c(/C=C/c3nc(N[C@@H]4CCOC4)cc(N4CCCC4)n3)nc2cc1C [Example 1.041, 6-pyrrolidin-1-yl-N-[(3R)-tetrahydrofuran-3-yl]-2-[(E)-2-(3,6,7-trimethylquinoxalin-2-yl)vinyl]pyrimidin-4-amine] | 0.66
8 | CO[C@H]1CC[C@H](Nc2cc(N3CCCC3)nc(/C=C/c3nc4ccc(F)cc4nc3C)n2)CC1 [Example 1.048, 2-[(E)-2-(6-fluoro-3-methylquinoxalin-2-yl)vinyl]-N-(trans-4-methoxycyclohexyl)-6-pyrrolidin-1-ylpyrimidin-4-amine dihydrochloride] | 0.04
9 | Cc1nc2ccc(F)cc2nc1/C=C/c1nc(NC2CCOCC2)cc(N2CCCC2)n1 [Example 1.050, 2-[(E)-2-(7-fluoro-3-methylquinoxalin-2-yl)vinyl]-6-pyrrolidin-1-yl-N-(tetrahydro-2H-pyran-4-yl)pyrimidin-4-amine hydrochloride] | 0.14
10 | Cc1ccc2nc(C)c(/C=C/c3nc(N[C@H]4CC[C@](C)(O)CC4)cc(N4CCCC4)n3)nc2c1 [Example 1.064, trans-4-({2-[(E)-2-(3,7-dimethylquinoxalin-2-yl)vinyl]-6-pyrrolidin-1-ylpyrimidin-4-yl}amino)-1-methylcyclohexanol] | 0.048
11 | Cc1nc2ccc(C(F)(F)F)cc2nc1/C=C/c1nc(N[C@@H]2CCS(=O)(=O)C2)cc(N2CCCC2)n1 [Example 1.074, N-[(3R)-1,1-dioxidotetrahydro-3-thienyl]-2-{(E)-2-[3-methyl-7-(trifluoromethyl)quinoxalin-2-yl]vinyl}-6-pyrrolidin-1-ylpyrimidin-4-amine] | 0.0033
12 | COc1ccc2nc(C)c(/C=C/c3nc(NC4CCOCC4)cc(N4CCCC4)n3)nc2c1 [Example 1.078, 2[(E)-2-(7-methoxy-3-methylquinoxalin-2-yl)vinyl]-6-pyrrolidin-1-yl-N-(tetrahydro-2H-pyran-4-yl)pyrimidin-4-amine dihydrochloride] | 0.047
13 | Cc1nc2ccc(OC(F)(F)F)cc2nc1/C=C/c1nc(N[C@H]2CC[C@H](O)CC2)cc(N2CCCC2)n1 [Example 1.084, trans-4-[(2-{(E)-2-[3-methyl-7-(trifluoromethoxy)quinoxalin-2-yl]vinyl}-6-pyrrolidin-1-ylpyrimidin-4-yl)amino]cyclohexanol] | 0.011
14 | Cc1cc2ccccc2nc1/C=C/c1nc(NC2CCOCC2)cc(N2CCCC2)n1 [Example 1.090, 2-[(E)-2-(3-methylquinolin-2-yl)vinyl]-6-pyrrolidin-1-yl-N-(tetrahydro-2H-pyran-4-yl)pyrimidin-4-amine] | 0.36
15 | Cc1cc2ccccc2nc1/C=C/c1nc(N[C@@H]2CCS(=O)(=O)C2)cc(N2CCCC2)n1 [Example 1.093, N-[(3R)-1,1-dioxidotetrahydro-3-thienyl]-2-[(E)-2-(3-methylquinolin-2-yl)vinyl]-6-pyrrolidin-1-ylpyrimidin-4-amine] | 0.3
16 | Oc1nc2ccccc2nc1/C=C/c1nc(NC2CCOCC2)cc(N2CCCC2)n1 [Example 1.094, 3-{(E)-2-[4-pyrrolidin-1-yl-6-(tetrahydro-2H-pyran-4-ylamino)pyrimidin-2-yl]vinyl}quinoxalin-2-ol hydrochloride] | 0.17
17 | CN(C)c1nc2ccccc2nc1/C=C/c1nc(N2CCCC2)cc(N2CCOCC2)n1 [Example 1.095, N,N-dimethyl-3-[(E)-2-(4-morpholin-4-yl-6-pyrrolidin-1-ylpyrimidin-2-yl)vinyl]quinoxalin-2-amine] | 0.79
18 | CN(C)c1nc2ccccc2nc1/C=C/c1nc(N2CCCC2)cc(N(C2CCOCC2)C2CC2)n1 [Example 1.099, 3-((E)-2-{4-[cyclopropyl(tetrahydro-2H-pyran-4-yl)amino]-6-pyrrolidin-1-ylpyrimidin-2-yl}vinyl)-N,N-dimethylquinoxalin-2-amine] | 0.1
19 | CN(c1cc(N2CCCC2)nc(/C=C/c2nc3ccccc3nc2N(C)C2CC2)n1)C1CCOCC1 [Example 1.101, N-cyclopropyl-N-methyl-3-((E)-2-{4-[methyl(tetrahydro-2H-pyran-4-yl)amino]-6-pyrrolidin-1-ylpyrimidin-2-yl}vinyl)quinoxalin-2-amine] | 0.46
20 | CO[C@H]1CC[C@H](Nc2cc(N3CCCC3)nc(CCc3nc4cc(C(F)(F)F)ccc4nc3C)n2)CC1 [Example 4.003, N-(trans-4-methoxycyclohexyl)-2-{2-[3-methyl-7-(trifluoromethyl)quinoxalin-2-yl]ethyl}-6-pyrrolidin-1-ylpyrimidin-4-amine] | 0.031
21 | Cc1nc2ccccc2nc1OCc1nc(N2CCCC2)cc(N(C)C2CCOCC2)n1 [Example 5.002, N-methyl-2-{[(3-methylquinoxalin-2-yl)oxy]methyl}-6-pyrrolidin-1-yl-N-(tetrahydro-2H-pyran-4-yl)pyrimidin-4-amine hydrochloride] | 0.61
22 | Cc1nc2ccccc2nc1OCc1cc(NC2CCOCC2)nc(N2CCCC2)n1 [Example 6.001, 6-[(3-methylquinoxalin-2-yl)oxy]methyl-2-pyrrolidin-1-yl-N-(tetrahydro-2H-pyran-4-yl)pyrimidin-4-amine hydrochloride] | 0.22
